Results published in ChEMBL document CHEMBL1146668, “1,2-Benzothiazine 1,1-dioxide alpha-ketoamide analogues as potent calpain I inhibitors” (Bioorg Med Chem Lett, 2004).

Biological target: T1, Calpain-1 catalytic subunit (Homo sapiens, UniProt P07384)
T1 sequence (P07384 whole entry): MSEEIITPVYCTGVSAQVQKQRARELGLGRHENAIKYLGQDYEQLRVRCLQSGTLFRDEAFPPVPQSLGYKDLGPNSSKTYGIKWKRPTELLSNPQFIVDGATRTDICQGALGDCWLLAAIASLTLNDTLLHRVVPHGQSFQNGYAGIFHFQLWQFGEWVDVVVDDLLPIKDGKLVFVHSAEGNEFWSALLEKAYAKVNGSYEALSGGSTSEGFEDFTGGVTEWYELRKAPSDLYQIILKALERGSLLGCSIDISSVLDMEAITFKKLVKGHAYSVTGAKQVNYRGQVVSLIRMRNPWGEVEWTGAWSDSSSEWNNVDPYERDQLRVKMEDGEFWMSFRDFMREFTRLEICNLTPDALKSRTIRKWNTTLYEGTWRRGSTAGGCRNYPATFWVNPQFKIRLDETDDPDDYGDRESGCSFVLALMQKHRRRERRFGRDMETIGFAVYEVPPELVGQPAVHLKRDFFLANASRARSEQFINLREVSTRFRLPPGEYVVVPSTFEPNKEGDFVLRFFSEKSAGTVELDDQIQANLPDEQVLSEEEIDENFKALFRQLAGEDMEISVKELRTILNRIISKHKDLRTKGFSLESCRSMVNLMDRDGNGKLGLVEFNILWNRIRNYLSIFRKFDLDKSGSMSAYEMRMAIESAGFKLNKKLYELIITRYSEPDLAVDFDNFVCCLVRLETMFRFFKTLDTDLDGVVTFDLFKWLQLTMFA
Assay: In vitro inhibitory activity against human calpain I; Not determined; call rule not given here

In the case of `CCN1C(C(=O)N[C@H](C=O)Cc2ccccc2)Cc2cc(Cl)ccc2S1(=O)=O` (some centres undefined), the IC50 is reported as 0.005 µM.

Biological target: T1, Calpain-1 catalytic subunit
Assay: In vitro inhibitory activity against recombinant human calpain 1

Point of comparison: `CCN1C(C(=O)N[C@@H](Cc2ccccc2)C(=O)C(=O)NCCCn2ccnc2)Cc2cc3c(cc2S1(=O)=O)OCCO3` (some centres undefined), IC50 5 µM. Against it:
- CCN1C(C(=O)N[C@@H](Cc2ccccc2)C(=O)C(=O)NCc2ccncc2)Cc2cc3c(cc2S1(=O)=O)OCCO3 (some centres undefined) — 21-fold lower, 0.24 µM
- CCNC(=O)C(=O)[C@H](Cc1ccccc1)NC(=O)C1Cc2cc(Cl)ccc2S(=O)(=O)N1CC (some centres undefined) — 5-fold lower, 1 µM
- CCN1C(C(=O)N[C@@H](Cc2ccccc2)C(=O)C(=O)NC(C)C)Cc2cc3c(cc2S1(=O)=O)OCCO3 (some centres undefined) — 24-fold lower, 0.205 µM
- CCN1C(C(=O)N[C@@H](Cc2ccccc2)C(=O)C(=O)NCCc2ccccc2)Cc2cc3c(cc2S1(=O)=O)OCCO3 (some centres undefined) — 79-fold lower, 0.063 µM
- CCN1C(C(=O)N[C@@H](Cc2ccccc2)C(=O)C(=O)NCCOC)Cc2cc3c(cc2S1(=O)=O)OCCO3 (some centres undefined) — 25-fold lower, 0.2 µM
- O=C[C@H](Cc1ccccc1)NC(=O)C1Cc2ccccc2S(=O)(=O)N1 (some centres undefined) — 710-fold lower, 0.007 µM
- CCN1C(C(=O)N[C@@H](Cc2ccccc2)C(=O)C(=O)NCc2ccccn2)Cc2cc3c(cc2S1(=O)=O)OCCO3 (some centres undefined) — 29-fold lower, 0.17 µM
- CCN1C(C(=O)N[C@@H](Cc2ccccc2)C(=O)C(=O)NCCCN2CCCC2=O)Cc2cc3c(cc2S1(=O)=O)OCCO3 (some centres undefined) — 10-fold lower, 0.5 µM
- CCN1C(C(=O)N[C@@H](Cc2ccccc2)C(=O)C(=O)NCCCN2CCOCC2)Cc2cc3c(cc2S1(=O)=O)OCCO3 (some centres undefined) — 26-fold lower, 0.195 µM
- C=CCNC(=O)C(=O)[C@H](Cc1ccccc1)NC(=O)C1Cc2cc3c(cc2S(=O)(=O)N1CC)OCCO3 (some centres undefined) — 25-fold lower, 0.2 µM
- CCCCCNC(=O)C(=O)[C@H](Cc1ccccc1)NC(=O)C1Cc2cc3c(cc2S(=O)(=O)N1CC)OCCO3 (some centres undefined) — 33-fold lower, 0.15 µM
- CCN1C(C(=O)N[C@@H](Cc2ccccc2)C(=O)C(=O)OC)Cc2cc3c(cc2S1(=O)=O)OCCO3 (some centres undefined) — 5-fold lower, 1 µM
- CCCCNC(=O)C(=O)[C@H](CC(C)C)NC(=O)C1Cc2cc3c(cc2S(=O)(=O)N1CC)OCCO3 (single isomer, unassigned; form 1) — 10-fold lower, 0.5 µM
- CCCCNC(=O)C(=O)[C@H](CC(C)C)NC(=O)C1Cc2cc3c(cc2S(=O)(=O)N1CC)OCCO3 (single isomer, unassigned; form 2) — 5-fold lower, 1 µM

Biological target: T1, Calpain-1 catalytic subunit
Assay: In vitro inhibitory activity against human calpain 1 in Molt-4 cells (intact human T-cell leukemia cell line)
Assay type: cell-based

Point of comparison: `CCN1C(C(=O)N[C@@H](Cc2ccccc2)C(=O)C(=O)NCCNS(=O)(=O)c2ccc(-c3ccccn3)s2)Cc2cc3c(cc2S1(=O)=O)OCCO3` (some centres undefined), IC50 1.3 µM. Against it:
- CCN1C(C(=O)N[C@@H](Cc2ccccc2)C(=O)C(=O)NCCCNS(=O)(=O)c2ccccc2)Cc2cc3c(cc2S1(=O)=O)OCCO3 (some centres undefined) — 2.1-fold higher, 2.7 µM
- CCN1C(C(=O)N[C@@H](Cc2ccccc2)C(=O)C(=O)NCCCNS(=O)(=O)c2ccc([N+](=O)[O-])cc2)Cc2cc3c(cc2S1(=O)=O)OCCO3 (some centres undefined) — 2.8-fold higher, 3.6 µM
- CCN1C(C(=O)N[C@@H](Cc2ccccc2)C(=O)C(=O)NCCNS(=O)(=O)c2ccc([N+](=O)[O-])cc2)Cc2cc3c(cc2S1(=O)=O)OCCO3 (some centres undefined) — 3.2-fold higher, 4.2 µM
- CCN1C(C(=O)N[C@@H](Cc2ccccc2)C(=O)C(=O)NCCNS(=O)(=O)c2ccc(F)cc2)Cc2cc3c(cc2S1(=O)=O)OCCO3 (some centres undefined) — 1.5-fold higher, 2 µM
- CCN1C(C(=O)N[C@@H](Cc2ccccc2)C(=O)C(=O)NCCCNS(=O)(=O)c2ccc(F)cc2)Cc2cc3c(cc2S1(=O)=O)OCCO3 (some centres undefined) — 1.8-fold higher, 2.4 µM
- CCN1C(C(=O)N[C@@H](Cc2ccccc2)C(=O)C(=O)NCCNS(=O)(=O)c2ccccc2)Cc2cc3c(cc2S1(=O)=O)OCCO3 (some centres undefined) — 3.8-fold higher, 5 µM

Biological target: T2, Cathepsin B (Homo sapiens, UniProt P07858)
Assay: Inhibitory activity against cathepsin B

For `CCN1C(C(=O)N[C@@H](Cc2ccccc2)C(=O)C(=O)NCCNS(=O)(=O)c2ccc(-c3ccccn3)s2)Cc2cc3c(cc2S1(=O)=O)OCCO3` (some centres undefined), the IC50 was “Not Active”.

Biological target: T2, Cathepsin B
Assay: Inhibitory activity against cathepsin B; In active

With `CCN1C(C(=O)N[C@@H](Cc2ccccc2)C(=O)C(=O)NCCNS(=O)(=O)c2ccccc2)Cc2cc3c(cc2S1(=O)=O)OCCO3` (some centres undefined) the IC50 was “Not Active”.
`CCCCNC(=O)C(=O)[C@H](Cc1ccccc1)NC(=O)C1Cc2cc3c(cc2S(=O)(=O)N1CC)OCCO3` (stereo in doubt) was tested, and the IC50 was “Not Active”.

Biological target: Chymotrypsinogen B (Homo sapiens, UniProt P17538)
Assay: Inhibitory activity against chymotrypsinogen; Range 1-10 uM

Sequence of Chymotrypsinogen B (P17538 34-164 limits assumed, other chains not shown): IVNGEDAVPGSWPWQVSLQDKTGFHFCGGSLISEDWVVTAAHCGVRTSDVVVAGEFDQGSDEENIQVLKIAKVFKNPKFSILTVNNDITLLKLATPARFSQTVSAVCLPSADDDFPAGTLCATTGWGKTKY
Sequence of Chymotrypsinogen B (P17538 167-263 limits assumed, other chains not shown): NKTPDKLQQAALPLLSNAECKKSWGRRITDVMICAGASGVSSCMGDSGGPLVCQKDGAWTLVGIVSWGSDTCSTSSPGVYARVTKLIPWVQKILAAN

`CCN1C(C(=O)N[C@@H](Cc2ccccc2)C(=O)C(=O)NCCNS(=O)(=O)c2ccc(-c3ccccn3)s2)Cc2cc3c(cc2S1(=O)=O)OCCO3` (some centres undefined) and `CCN1C(C(=O)N[C@@H](Cc2ccccc2)C(=O)C(=O)NCCNS(=O)(=O)c2ccccc2)Cc2cc3c(cc2S1(=O)=O)OCCO3` (some centres undefined) cannot be ordered by IC50: greater than 10 µM for the first, greater than 10 µM for the second.

For `CCCCNC(=O)C(=O)[C@H](Cc1ccccc1)NC(=O)C1Cc2cc3c(cc2S(=O)(=O)N1CC)OCCO3` (stereo in doubt), the IC50 was greater than 10 µM.
